# Target: T1, FXR (Homo sapiens, UniProt Q96RI1)
# T1 construct: expressed in transfected cells; host or cells: CV-1 cells
# T1 sequence (Q96RI1 1-486): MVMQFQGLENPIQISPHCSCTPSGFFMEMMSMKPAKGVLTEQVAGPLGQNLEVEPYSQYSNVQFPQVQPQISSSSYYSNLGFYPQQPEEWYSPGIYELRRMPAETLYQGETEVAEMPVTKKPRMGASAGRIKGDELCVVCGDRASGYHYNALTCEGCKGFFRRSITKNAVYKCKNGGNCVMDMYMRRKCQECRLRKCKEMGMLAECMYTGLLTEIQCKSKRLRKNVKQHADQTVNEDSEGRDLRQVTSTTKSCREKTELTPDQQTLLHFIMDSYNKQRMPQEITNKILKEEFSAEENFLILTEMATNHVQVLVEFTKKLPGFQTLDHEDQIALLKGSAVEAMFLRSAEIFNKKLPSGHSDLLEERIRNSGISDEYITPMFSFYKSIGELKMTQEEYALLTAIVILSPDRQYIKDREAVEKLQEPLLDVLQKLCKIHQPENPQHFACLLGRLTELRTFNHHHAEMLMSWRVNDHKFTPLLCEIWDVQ
# T1 sequence (P19793 1-462 partner): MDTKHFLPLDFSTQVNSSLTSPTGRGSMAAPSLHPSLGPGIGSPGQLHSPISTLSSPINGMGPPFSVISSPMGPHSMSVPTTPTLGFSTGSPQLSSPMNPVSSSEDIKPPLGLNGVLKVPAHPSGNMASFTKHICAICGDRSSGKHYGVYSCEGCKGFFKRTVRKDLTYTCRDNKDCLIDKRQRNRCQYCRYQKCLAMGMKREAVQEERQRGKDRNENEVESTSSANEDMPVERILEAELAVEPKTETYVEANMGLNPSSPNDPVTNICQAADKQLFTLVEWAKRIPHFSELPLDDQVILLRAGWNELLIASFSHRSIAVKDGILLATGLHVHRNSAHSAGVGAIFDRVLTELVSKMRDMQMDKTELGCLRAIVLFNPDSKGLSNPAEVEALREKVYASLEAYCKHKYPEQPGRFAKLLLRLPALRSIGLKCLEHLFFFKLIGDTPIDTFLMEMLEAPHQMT
# Test: In Vitro FXR Assay (TK): TK-ECRE-luc reporter in transfected CV-1 cells
# Assay type: cell-based
# Conditions: CV-1 cells transfected with hFXR, hRXR, 18 h incubation, luminescence
# Procedure, shortened: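 Luciferase read-out from lysed CV-1 cells exposed 18 h to DMSO-diluted compounds. Cells had been transfected overnight with expression plasmids for hFXR and hRXR plus TK-ECRE-luc reporter and pCMX-YFP, grown in charcoal-stripped serum at 37 °C, 5% CO2.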
row,SMILES,EC50 [nM]
1,"CN(C)c1ccc(-c2ccc(CN(C(=O)C3CCCCC3)c3cccc(/C=C/C(=O)OCc4ccccc4)c3)cc2)cc1 [86.7, (E)-Benzyl 3-(3-(N-((4′-(dimethylamino)-[1,1′-biphenyl]-4-yl)methyl)cyclohexanecarboxamido)phenyl) acrylate]",> 10000
2,"COC(=O)/C=C/c1cc(OC)cc(N(Cc2ccc(-c3ccc(N(C)C)cc3)cc2)C(=O)C2CCCCC2)c1 [86.8, (E)-Methyl 3-(3-(N-((4′-(dimethylamino)-[1,1′-biphenyl]-4-yl)methyl)cyclohexanecarboxamido)-5-methoxyphenyl)acrylate]",1000 to 10000
3,"COC(=O)/C=C/c1cc(C#N)cc(N(Cc2ccc(-c3ccc(N(C)C)cc3)cc2)C(=O)C2CCCCC2)c1 [86.9, (E)-Methyl 3-(3-cyano-5-(N-((4′-(dimethylamino)-[1,1′-biphenyl]-4-yl)methyl)cyclohexanecarboxamido)phenyl) acrylate]",1000 to 10000
4,"COC(=O)/C=C/c1cc(Cl)cc(N(Cc2ccc(-c3ccc(N(C)C)cc3)cc2)C(=O)C2CCCCC2)c1 [86.10, (E)-Methyl 3-(3-chloro-5-(N-((4′-(dimethylamino)-[1,1′-biphenyl]-4-yl)methyl)cyclohexanecarboxamido)phenyl) acrylate]",≤ 1000
5,"COC(=O)/C=C/c1cc(N(Cc2ccc(-c3ccc(N(C)C)cc3)cc2)C(=O)C2CCCCC2)cc(C(F)(F)F)c1 [86.11, (E)-Methyl 3-(3-(N-((4′-(dimethylamino)-[1,1′-biphenyl]-4-yl)methyl)cyclohexanecarboxamido)-5-(trifluoromethyl)phenyl)acrylate]",1000 to 10000
6,"COC(=O)/C=C/c1cccc(N(Cc2ccc(-c3ccc(N(C)C)cc3)cc2)C(=O)[C@H]2CC[C@H](NC(C)=O)CC2)c1 [98.1, trans-(E)-Methyl 3-(3-(4-acetamido-N-((4′-(dimethylamino)-[1,1′-biphenyl]-4-yl)methyl)cyclohexanecarboxamido)phenyl)acrylate]",≤ 1000
7,"COC(=O)/C=C/c1cccc(N(Cc2ccc(-c3ccc(N(C)C)cc3)cc2)C(=O)[C@H]2CC[C@H](NS(C)(=O)=O)CC2)c1 [98.2, trans-(E)-Methyl 3-(3-(N-((4′-(dimethylamino)-[1,1′-biphenyl]-4-yl)methyl)-4-(methylsulfonamido)cyclohexane-carboxamido)phenyl)acrylate]",≤ 1000
8,"COC(=O)/C=C/c1cccc(N(Cc2ccc(-c3ccc(N(C)C)cc3)cc2)C(=O)C2CCC(=O)CC2)c1 [compound 17, (E)-Methyl 3-(3-(N-((4′-(dimethylamino)-[1,1′-biphenyl]-4-yl)methyl)-4-oxocyclohexanecarboxamido)phenyl)acrylate]",≤ 1000
9,"COC(=O)/C=C/c1cccc(N(Cc2ccc(-c3ccc(N(C)C)cc3)cc2)C(=O)[C@H]2CC[C@H](NC(=O)OC(C)(C)C)CC2)c1 [compound 96, (E)-Methyl 3-(3-(trans-4-((tert-butoxycarbonyl)amino)-N-((4′-(dimethylamino)-[1,1′-biphenyl]-4-yl)methyl)cyclohexanecarboxamido)phenyl) acrylate]",≤ 1000
10,"COC(=O)/C=C/c1cccc(N(Cc2ccc(-c3ccc(N(C)C)cc3)cc2)C(=O)[C@H]2CC[C@H](N)CC2)c1 [compound 97, (E)-Methyl 3-(3-(trans-4-amino-N-((4′-(dimethylamino)-[1,1′-biphenyl]-4-yl)methyl)cyclohexanecarboxamido)phenyl) acrylate]",> 10000
11,"COC(=O)/C=C/c1cccc(N(Cc2ccc(-c3ccc(N(C)C)cc3)cc2)C(=O)[C@H]2CC[C@H](NC(=O)OC)CC2)c1 [compound 98, (E)-Methyl 3-(3-(trans-N-((4′-(dimethylamino)-[1,1′-biphenyl]-4-yl)methyl)-4-((methoxycarbonyl)amino)cyclo-hexanecarboxamido)phenyl)acrylate]",≤ 1000
12,"CC(C)=CCc1cccc(N(Cc2ccc(-c3ccc(N(C)C)cc3)cc2)C(=O)C2CCCCC2)c1 [compound 99, N-((4′-(Dimethylamino)-[1,1′-biphenyl]-4-yl)methyl)-N-(3-(3-methylbut-2-en-1-yl)phenyl) cyclohexanecarboxamide]",> 10000
